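Step 1: Grow cells in 96-well plates. Step 2: Expose to compound for 48 hours at 5 concentrations. Step 3: Interpolate endpoints linearly; if unreached, use highest concentration. Here, GI50 denotes the concentration required for 50% inhibition of growth. The concentration for full growth arrest is given as TGI.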
Legend:
Assay in all cases: NCI anticancer screen, dose series, 48 h
A498 renal = tested on: A498 renal
HCT-15 colon = tested on: HCT-15 colon
K-562 leukemia = tested on: K-562 leukemia
MALME-3M melanoma = tested on: MALME-3M melanoma
MOLT-4 leukemia = tested on: MOLT-4 leukemia
OVCAR-3 ovarian = tested on: OVCAR-3 ovarian
OVCAR-4 ovarian = tested on: OVCAR-4 ovarian
OVCAR-8 ovarian = tested on: OVCAR-8 ovarian
RXF 393 renal = tested on: RXF 393 renal
SW-620 colon = tested on: SW-620 colon

| SMILES | TGI (A498 renal) [µM] | TGI (HCT-15 colon) [µM] | TGI (K-562 leukemia) [µM] | TGI (MALME-3M melanoma) [µM] | TGI (MOLT-4 leukemia) [µM] | TGI (OVCAR-3 ovarian) [µM] | TGI (OVCAR-4 ovarian) [µM] | TGI (OVCAR-8 ovarian) [µM] | TGI (RXF 393 renal) [µM] | TGI (SW-620 colon) [µM] | GI50 (A498 renal) [µM] | GI50 (HCT-15 colon) [µM] | GI50 (K-562 leukemia) [µM] | GI50 (MALME-3M melanoma) [µM] | GI50 (MOLT-4 leukemia) [µM] | GI50 (OVCAR-3 ovarian) [µM] | GI50 (OVCAR-4 ovarian) [µM] | GI50 (OVCAR-8 ovarian) [µM] | GI50 (RXF 393 renal) [µM] | GI50 (SW-620 colon) [µM] |
| --- | --- | --- | --- | --- | --- | --- | --- | --- | --- | --- | --- | --- | --- | --- | --- | --- | --- | --- | --- | --- |
| CN(Cc1cnc2nc(N)nc(N)c2n1)c1ccc(C(=O)NC(CCC(=O)O)C(=O)O)cc1C(F)(F)F (centres undefined) | > 100 | > 100 | > 100 | > 100 | > 100 | > 100 | > 100 | > 66.7 | > 100 | > 100 | – | – | – | – | – | – | – | – | – | – |
| FC(F)(F)Oc1cccc(-c2cnc3ccc(-c4ccncc4)nn23)c1 | 2.42 | > 100 | > 100 | > 100 | 7.73 | 7.43 | 11.3 | > 100 | 2.41 | > 100 | 0.365 | 0.608 | 3.49 | 2.35 | 2.17 | 1.65 | 1.4 | 1.47 | 0.398 | 0.801 |
| O=C(O)CCNc1ccccc1C(=O)O | > 100 | > 100 | > 100 | > 100 | > 100 | > 100 | > 100 | > 100 | > 100 | > 100 | – | – | – | – | – | – | – | – | – | – |
| CN1C(=O)CC(c2cccc(C3CC(=O)N(C)C3=O)n2)C1=O (centres undefined) | > 100 | > 100 | > 100 | > 100 | > 100 | > 100 | > 100 | > 100 | > 100 | > 100 | – | – | – | – | – | – | – | – | – | – |
| Clc1ccc(CSC(Cn2ccnc2)c2ccc(Cl)cc2Cl)cc1 (centres undefined) | 2.33 | 3.76 | 4.81 | 3.15 | 4.87 | 2.87 | 3.16 | 3.32 | 2.76 | 3.1 | 1.13 | 1.68 | 2 | 1.64 | 1.72 | 1.54 | 1.37 | 1.6 | 1.43 | 1.59 |
| O=C(NC1CCN(Cc2ccccc2)CC1)c1cc(-c2ccncc2)nc2ccc(Cl)cc12 | 3.45 | > 48.2 | 27.3 | 26.9 | > 46.3 | 40.1 | 59.6 | > 72.9 | 49.2 | > 100 | – | 10.5 | 3.78 | 9.39 | 4.26 | 15.4 | 10.7 | 22.5 | 5.48 | 19.8 |
| N#Cc1c(-c2ccccc2)nc(SCC2CO2)nc1N1CCOCC1 (centres undefined) | 5.42 | > 100 | > 100 | > 68.3 | > 74.6 | > 69.2 | > 100 | > 100 | > 100 | > 100 | 1.26 | 4.71 | > 47.2 | 2.32 | 10.1 | 5.27 | 52.7 | 35.9 | 13 | 28.8 |
| NCCNc1c2c(c(NCCN)c3c(CO)c[nH]c13)C(=O)c1ccccc1C2=O | > 100 | > 100 | > 100 | 26.3 | > 100 | 30.7 | > 100 | 47.2 | 34.7 | > 100 | 41.2 | > 100 | 9.54 | 8.51 | 3.93 | 1.14 | 38.3 | 5.26 | 5.84 | 8.7 |
| CCOC(=O)c1c2c(c(O)c3ccccc3c(O)n(Cc3ccc(OC)cc3)c1C)C(=O)C=CC2=O | > 100 | > 100 | > 100 | > 100 | > 100 | > 100 | > 100 | > 100 | > 100 | > 100 | > 100 | > 100 | 76.9 | > 100 | 76 | 68.9 | > 100 | > 100 | > 100 | > 100 |
| C/C(=N\NC(=O)c1sc(=S)n(C)c1N)c1cc2ccccc2o1 | 18.9 | 24.9 | 30.8 | 56.9 | 29.1 | 29.9 | 64.2 | 33.8 | 27.8 | 28.4 | 4.58 | 10.6 | 6.38 | 28.1 | 3.51 | 15.5 | 17.9 | 15.3 | 13.2 | 14.8 |
| Cc1cn(Cc2ccccc2CCO)c(=S)[nH]c1=O | > 100 | > 100 | > 100 | > 100 | > 100 | > 100 | > 100 | > 100 | > 100 | > 100 | – | – | – | – | – | – | – | – | – | – |
| CC(C)(C)OC1=C(OC(C)(C)C)C(O)(c2ccccc2)C1=O (centres undefined) | > 100 | > 100 | > 100 | > 100 | > 100 | > 100 | > 100 | > 100 | > 100 | > 100 | – | – | – | – | – | – | – | – | – | – |
| CCCCC[C@H](O)/C=C/[C@@H]1[C@@H](C/C=C\CCCC(=O)O)[C@@H](O)C[C@H]1O | > 100 | > 100 | > 100 | > 100 | > 100 | > 100 | > 100 | > 100 | > 100 | > 100 | > 100 | > 100 | > 100 | > 100 | > 100 | > 100 | > 100 | > 100 | > 100 | > 100 |

Reference: PubChem BioAssay (NCI)
